Results taken from PMC8704389, “New Insights into the Hypotensins from Tityus serrulatus Venom: Pro-Inflammatory and Vasopeptidases Modulation Activities” (Toxins, 2021).
Where “and” joins values, the source holds several entries; their conditions need not be identical. Equal entries are not always repeated. No end group written: not given here.

What was measured:
normotensive Wistar rats = settings: by potentiating bradykinin; cited from earlier work
Source text: Among the linear peptides we have the hypotensins (TsHpt), identified from TsV proteomic analyzes. Both peptides are made up of 25 amino acid residues that contain two consecutive prolines in their C-terminal portion and a punctual difference between TsHpt-I and -II, which is the residue at position 15, being a glutamine in TsHpt-I and a glutamic acid in TsHpt-II. […] The hypothesis is that the vasodilation effect is related to the releas ...

ACE = target: T1, ACE (Oryctolagus cuniculus, UniProt P12822); assay: Modulation of ACE activity, FRET substrate Abz-FRK(Dnp)P-OH; type: biochemical, rabbit; settings: 10 µM peptide, 3.0 ng ACE, 10 µM Abz-FRK(Dnp)P-OH, Tris HCl 100 mM, NaCl 50 mM, ZnCl2 10 µM, pH 7.0, 37 °C, 15 min, fluorescence 320/420 nm, triplicate
T1 construct: Angiotensin Converting Enzyme (ACE) from rabbit lung; purchased Sigma-Aldrich; host or cells: rabbit lung tissue
T1 sequence (P12822 34-1310): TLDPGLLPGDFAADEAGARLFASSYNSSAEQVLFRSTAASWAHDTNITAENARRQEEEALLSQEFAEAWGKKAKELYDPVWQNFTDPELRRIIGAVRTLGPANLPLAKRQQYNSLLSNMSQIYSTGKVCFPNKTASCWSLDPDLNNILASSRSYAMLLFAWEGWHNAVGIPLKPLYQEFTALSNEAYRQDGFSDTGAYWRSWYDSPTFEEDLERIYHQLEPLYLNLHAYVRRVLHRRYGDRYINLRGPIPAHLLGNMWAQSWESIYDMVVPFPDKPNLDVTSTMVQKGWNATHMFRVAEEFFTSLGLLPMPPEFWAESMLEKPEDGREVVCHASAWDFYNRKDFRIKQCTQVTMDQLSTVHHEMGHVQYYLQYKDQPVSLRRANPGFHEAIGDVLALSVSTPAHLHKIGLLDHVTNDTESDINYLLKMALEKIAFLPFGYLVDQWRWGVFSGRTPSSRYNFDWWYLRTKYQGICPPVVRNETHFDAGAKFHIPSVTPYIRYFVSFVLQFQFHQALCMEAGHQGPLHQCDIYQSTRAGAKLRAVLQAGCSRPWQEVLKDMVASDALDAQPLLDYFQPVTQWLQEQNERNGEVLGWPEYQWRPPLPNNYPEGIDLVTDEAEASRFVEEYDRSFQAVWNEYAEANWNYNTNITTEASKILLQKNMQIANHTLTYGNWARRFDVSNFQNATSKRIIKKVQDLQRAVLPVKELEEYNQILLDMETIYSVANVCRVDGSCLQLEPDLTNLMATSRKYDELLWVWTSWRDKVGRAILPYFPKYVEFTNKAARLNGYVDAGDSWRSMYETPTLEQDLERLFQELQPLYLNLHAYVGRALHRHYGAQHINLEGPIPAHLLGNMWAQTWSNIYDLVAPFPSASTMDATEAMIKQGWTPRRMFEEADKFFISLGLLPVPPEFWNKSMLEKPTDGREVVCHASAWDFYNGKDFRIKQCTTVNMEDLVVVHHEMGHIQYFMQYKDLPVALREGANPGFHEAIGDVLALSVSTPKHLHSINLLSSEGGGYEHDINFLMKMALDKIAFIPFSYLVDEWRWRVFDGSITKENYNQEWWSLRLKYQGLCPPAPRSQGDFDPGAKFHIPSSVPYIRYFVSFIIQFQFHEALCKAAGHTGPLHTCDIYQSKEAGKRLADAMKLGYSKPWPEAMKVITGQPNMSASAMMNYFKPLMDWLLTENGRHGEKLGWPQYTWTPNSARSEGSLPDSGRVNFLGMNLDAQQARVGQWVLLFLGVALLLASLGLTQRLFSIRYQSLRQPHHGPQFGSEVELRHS
Protocol: The results were obtained by incubating the enzymes with their FRET substrates (10 µM) in a final volume of 100 µL. For the ACE assays, the used buffer was Tris HCl 100 mM, NaCl 50 mM and ZnCl2 10 µM, pH 7.0. For NEP, the assays were made in Tris HCl 50 mM, pH 7.5 buffer. All reactions occurred at 37 °C, in a Victor 3 fluorimeter (Perkin–Elmer) adjusted for excitation and emission readings at 320 and 420 nm, respectively, for 15 min (one reader per minute). Results were obtained in triplicate and analyzed on GraFit 5 software.
For ACE assays, 10 µM of each peptide was incubated with 3.0 ng of peptidase and 10 µM of Abz-FRK (Dnp) P-OH substrate, in Tris HCl 100 mM, NaCl 50 mM and ZnCl2 10 µM, pH 7.0 buffer. For NEP, 10 µM of TsHpt-I or -II was incubated with 1.5 ng of peptidase, 3.5 µM Abz-RGFK (Dnp)-OH in Tris HCl 50 mM, pH 7.5 buffer. All reactions occurred at 37 °C, in a final volume of 100 µL, in a Victor 3 fluorimeter (Perkin–Elmer, Waltham, MA, USA) adjusted for excitation and emission readings at 320 and 420 nm, respectively, for 15 min (one reader per minute). Results were obtained in triplicate and analyzed using GraFit 5 (Erithacus software, East Grinstead, West Sussex, UK).

NEP = target: T2, NEP (Homo sapiens, UniProt P08473); assay: Characterization of NEP inhibition (Ki and mechanism, Lineweaver-Burk); type: biochemical
T2 construct: gift of Prof; Adriana Carmona, Department of Biophysics, UNIFESP-EPM
T2 sequence (P08473 2-750): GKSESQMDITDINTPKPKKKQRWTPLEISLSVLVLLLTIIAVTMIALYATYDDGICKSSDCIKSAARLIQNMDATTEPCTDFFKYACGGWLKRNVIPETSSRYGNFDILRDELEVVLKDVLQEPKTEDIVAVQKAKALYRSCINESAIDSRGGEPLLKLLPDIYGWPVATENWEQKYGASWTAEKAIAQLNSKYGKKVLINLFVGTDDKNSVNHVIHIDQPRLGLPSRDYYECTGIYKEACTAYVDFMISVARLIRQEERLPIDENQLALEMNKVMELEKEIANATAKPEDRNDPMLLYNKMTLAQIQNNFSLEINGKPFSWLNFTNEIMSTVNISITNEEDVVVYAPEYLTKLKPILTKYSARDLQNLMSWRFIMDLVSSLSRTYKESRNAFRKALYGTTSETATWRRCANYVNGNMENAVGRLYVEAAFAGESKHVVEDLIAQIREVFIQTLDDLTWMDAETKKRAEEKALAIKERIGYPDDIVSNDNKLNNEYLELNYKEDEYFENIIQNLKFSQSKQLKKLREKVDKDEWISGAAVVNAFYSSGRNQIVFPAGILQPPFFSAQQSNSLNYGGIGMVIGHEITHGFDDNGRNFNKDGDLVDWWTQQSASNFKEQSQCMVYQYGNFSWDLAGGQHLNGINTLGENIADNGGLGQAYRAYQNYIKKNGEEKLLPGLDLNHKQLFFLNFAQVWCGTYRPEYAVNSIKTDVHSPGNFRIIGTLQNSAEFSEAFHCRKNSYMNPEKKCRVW
Protocol: Figure 2 Lineweaver–Burk plot of NEP inhibition by TsHpt-I. The inhibition constant (Ki) was determined using four Abz-RGFK-EDDnp substrate concentrations (4 μM, 6 μM, 8 μM and 10 μM), with variation in the concentration of TsHpt-I (3 μM and 4 μM), keeping the amount of enzyme fixed (1.5 ng). The experiment was performed in triplicate.
To determine the inhibition constant (Ki) of TsHpt-I over NEP, four concentrations of Abz-RGFK (Dnp)-OH (4 µM, 6 µM, 8 µM and 10 µM) and 3 µM and 4 µM of TsHpt-I were tested using 1.5 ng of peptidase in 100 µL of final volume of Tris HCl pH 7.5. The Km value of the substrate used was determined to be 14 µM [27]. Controls without the TsHpt-I were also performed in all assays. The reactions were monitored as described above (item 5.2). The Lineweaver–Burk plot was constructed (1/V × 1/(S)) according to the presented mechanism. The Ki was calculated as described by Segel. All assays were performed in triplicate.

Sequence	hypotensive activity (normotensive Wistar rats)	ACE Activation (%) (ACE)	Ki (NEP) [µM]	mechanism of inhibition of NEP (NEP; Lineweaver-Burk plot, triplicate)
AEIDFSGIPEDIIKQIKETNAKPPA [TsHpt-I]	able to exert hypotensive activity	64%	4.35	non-competitive inhibitor
AEIDFSGIPEDIIKEIKETNAKPPA [TsHpt-II]		46% and 44%		
